Laboratory results published in the supplement of paper PMC10307832.

Tests used:
Assay in all cases: relative viability (nuclei count vs DMSO), 5 days (fraction); higher = more cells survive
[1] = system: ABC-1
Outline: (§1)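 Medians of duplicate plates are given as relative viability. That measure is the nuclei count in treated wells divided by the count in vehicle wells. Counts were taken on 4× images of lung cancer cell lines in 1536-well plates, 5 days after pin-tool dosing the day after seeding with one drug alone or a fixed anchor-drug dose plus five library-drug doses (not always all listed) in √10 steps.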

[2] = system: COR-L23
Outline: as §1

[3] = system: EPLC-272H
Outline: as §1

[4] = system: HARA
Outline: as §1

[5] = system: HCC-15
Outline: as §1

[6] = system: HCC-44
Outline: as §1

[7] = system: HOP-62
Outline: as §1

[8] = system: LC-2-ad
Outline: as §1

[9] = system: LU99A
Outline: as §1

[10] = system: NCI-H1355
Outline: as §1

[11] = system: NCI-H1651
Outline: as §1

[12] = system: NCI-H1915
Outline: as §1

[13] = system: NCI-H1993
Outline: as §1

[14] = system: NCI-H2023
Outline: as §1

[15] = system: NCI-H2085
Outline: as §1

[16] = system: NCI-H2126
Outline: as §1

[17] = system: NCI-H2347
Outline: as §1

[18] = system: NCI-H650
Outline: as §1

[19] = system: NCI-H838
Outline: as §1

[20] = system: PC-14
Outline: as §1

[21] = system: SW 1573
Outline: as §1

[22] = system: UMC-11
Outline: as §1

**Q.** What does the source list for COc1cc2nccc(Oc3ccc(NC(=O)Nc4cc(C)on4)c(Cl)c3)c2cc1OC [Tivozanib] + CC(C)C[C@H](NC(=O)[C@H](Cc1ccccc1)NC(=O)c1cnccn1)B(O)O [Bortezomib] (partner 0.002 µM)?
**A.** relative viability ([1]; first compound 0.005 µM): 0.315; relative viability ([1]; first compound 0.01581 µM): 0.3; relative viability ([1]; first compound 0.05 µM): 0.277; relative viability ([1]; first compound 0.1581 µM): 0.304; relative viability ([1]; first compound 0.5 µM): 0.288; relative viability ([2]; first compound 0.005 µM): 0.88; relative viability ([2]; first compound 0.01581 µM): 0.931; relative viability ([2]; first compound 0.05 µM): 1.13; relative viability ([2]; first compound 0.1581 µM): 1.01; relative viability ([2]; first compound 0.5 µM): 0.869; relative viability ([3]; first compound 0.005 µM): 0.967; relative viability ([3]; first compound 0.01581 µM): 0.856; relative viability ([3]; first compound 0.05 µM): 0.949; relative viability ([3]; first compound 0.1581 µM): 0.727; relative viability ([3]; first compound 0.5 µM): 0.676; relative viability ([4]; first compound 0.005 µM): 1.03; relative viability ([4]; first compound 0.01581 µM): 1.18; relative viability ([4]; first compound 0.05 µM): 1.08; relative viability ([4]; first compound 0.1581 µM): 1.27; relative viability ([4]; first compound 0.5 µM): 1.14; relative viability ([5]; first compound 0.005 µM): 0.98; relative viability ([5]; first compound 0.01581 µM): 1.04; relative viability ([5]; first compound 0.05 µM): 1.08; relative viability ([5]; first compound 0.1581 µM): 1.04; relative viability ([5]; first compound 0.5 µM): 1.03; relative viability ([6]; first compound 0.005 µM): 0.895; relative viability ([6]; first compound 0.01581 µM): 0.809; relative viability ([6]; first compound 0.05 µM): 0.92; relative viability ([6]; first compound 0.1581 µM): 0.864; relative viability ([6]; first compound 0.5 µM): 0.833; relative viability ([7]; first compound 0.005 µM): 0.708; relative viability ([7]; first compound 0.01581 µM): 0.659; relative viability ([7]; first compound 0.05 µM): 0.548; relative viability ([7]; first compound 0.1581 µM): 0.565; relative viability ([7]; first compound 0.5 µM): 0.819; relative viability ([8]; first compound 0.005 µM): 0.951; relative viability ([8]; first compound 0.01581 µM): 1.04; relative viability ([8]; first compound 0.05 µM): 0.971; relative viability ([8]; first compound 0.1581 µM): 0.867; relative viability ([8]; first compound 0.5 µM): 0.843; relative viability ([9]; first compound 0.005 µM): 1.15; relative viability ([9]; first compound 0.01581 µM): 1.07; relative viability ([9]; first compound 0.05 µM): 1.29; relative viability ([9]; first compound 0.5 µM): 1.06; relative viability ([10]; first compound 0.005 µM): 1.09; relative viability ([10]; first compound 0.01581 µM): 1.17; relative viability ([10]; first compound 0.05 µM): 1.26; relative viability ([10]; first compound 0.5 µM): 1.14; relative viability ([11]; first compound 0.005 µM): 0.895; relative viability ([11]; first compound 0.01581 µM): 0.985; relative viability ([11]; first compound 0.05 µM): 1.02; relative viability ([11]; first compound 0.1581 µM): 0.865; relative viability ([11]; first compound 0.5 µM): 0.986; relative viability ([12]; first compound 0.005 µM): 0.945; relative viability ([12]; first compound 0.01581 µM): 0.986; relative viability ([12]; first compound 0.05 µM): 0.952; relative viability ([12]; first compound 0.1581 µM): 0.921; relative viability ([12]; first compound 0.5 µM): 0.884; relative viability ([13]; first compound 0.005 µM): 0.981; relative viability ([13]; first compound 0.01581 µM): 1.02; relative viability ([13]; first compound 0.05 µM): 1.39; relative viability ([13]; first compound 0.1581 µM): 0.647; relative viability ([13]; first compound 0.5 µM): 1.13; relative viability ([14]; first compound 0.005 µM): 0.909; relative viability ([14]; first compound 0.01581 µM): 1.07; relative viability ([14]; first compound 0.05 µM): 1; relative viability ([14]; first compound 0.1581 µM): 0.853; relative viability ([14]; first compound 0.5 µM): 0.965; relative viability ([15]; first compound 0.005 µM): 1.02; relative viability ([15]; first compound 0.01581 µM): 1.1; relative viability ([15]; first compound 0.05 µM): 1.07; relative viability ([15]; first compound 0.1581 µM): 1.04; relative viability ([15]; first compound 0.5 µM): 0.846; relative viability ([16]; first compound 0.005 µM): 1.1; relative viability ([16]; first compound 0.01581 µM): 1.07; relative viability ([16]; first compound 0.05 µM): 1.14; relative viability ([16]; first compound 0.1581 µM): 0.811; relative viability ([16]; first compound 0.5 µM): 1.11; relative viability ([17]; first compound 0.005 µM): 0.875; relative viability ([17]; first compound 0.01581 µM): 0.818; relative viability ([17]; first compound 0.05 µM): 1.18; relative viability ([17]; first compound 0.5 µM): 0.986; relative viability ([18]; first compound 0.005 µM): 0.447; relative viability ([18]; first compound 0.01581 µM): 0.956; relative viability ([18]; first compound 0.05 µM): 0.833; relative viability ([18]; first compound 0.1581 µM): 0.579; relative viability ([18]; first compound 0.5 µM): 0.497; relative viability ([19]; first compound 0.005 µM): 0.939; relative viability ([19]; first compound 0.01581 µM): 0.877; relative viability ([19]; first compound 0.05 µM): 0.924; relative viability ([19]; first compound 0.5 µM): 0.723; relative viability ([20]; first compound 0.005 µM): 0.821; relative viability ([20]; first compound 0.01581 µM): 0.847; relative viability ([20]; first compound 0.05 µM): 0.99; relative viability ([20]; first compound 0.1581 µM): 0.811; relative viability ([20]; first compound 0.5 µM): 0.812; relative viability ([21]; first compound 0.005 µM): 1.02; relative viability ([21]; first compound 0.01581 µM): 1.01; relative viability ([21]; first compound 0.05 µM): 0.936; relative viability ([21]; first compound 0.1581 µM): 0.772; relative viability ([21]; first compound 0.5 µM): 0.831; relative viability ([22]; first compound 0.005 µM): 0.579; relative viability ([22]; first compound 0.01581 µM): 0.723; relative viability ([22]; first compound 0.05 µM): 0.911; relative viability ([22]; first compound 0.5 µM): 0.668
